Source: patent US20060069132A1, “Azolecarboxamide herbicides” (priority 2004, published 2006)

Experiments:
barnyardgrass [1] = assay: Test A pre-/postemergence herbicide test; format: in vivo, Echinochloa crus-galli
Summary of the method: (§1)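 Sandy loam soil given preemergence directed spray; plants at 2 to 10 cm, one- to two-leaf stage, sprayed to runoff postemergence, compounds in non-phytotoxic solvent with surfactant. Injury rated visually versus untreated controls after about ten greenhouse days, 0 (no effect) to 100 (complete control); dash means not tested.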

large crabgrass [2] = assay: Test A pre-/postemergence herbicide test; format: in vivo, Digitaria sanguinalis
Summary of the method: as §1

giant foxtail [3] = assay: Test A pre-/postemergence herbicide test; format: in vivo, Setaria faberi
Summary of the method: as §1

morningglory [4] = assay: Test A pre-/postemergence herbicide test; format: in vivo, Ipomoea spp.
Summary of the method: as §1

redroot pigweed = assay: Test A pre-/postemergence herbicide test; format: in vivo, Amaranthus retroflexus
Summary of the method: as §1

velvetleaf [5] = assay: Test A pre-/postemergence herbicide test; format: in vivo, Abutilon theophrasti
Summary of the method: as §1

barnyardgrass [6] = assay: Test B pre-/postemergence herbicide test; format: in vivo, Echinochloa crus-galli; conditions: for Barnyardgrass plant response rating: postemergence
Summary of the method: (§2)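 Evaluation is visual, comparing treated with control plants on a scale where 0 means no effect and 100 means full control. Treatments were preemergence, or postemergence on seedlings 2–18 cm tall, and held 13–15 days in the greenhouse.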

Surinam grass = assay: Test B pre-/postemergence herbicide test; format: in vivo, Urochloa decumbens; conditions: for Surinam Grass plant response rating: postemergence
Summary of the method: (§3)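 Response was scored visually 13 to 15 days after treatment against untreated greenhouse controls, 0 meaning no effect and 100 complete control. Formulations (solvent mixture plus surfactant) went onto soil after planting, onto foliage of 1- to 4-leaf plants, and onto 2-leaf plants in a flooded paddy set including rice and barnyardgrass.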

cocklebur = assay: Test B pre-/postemergence herbicide test; format: in vivo, Xanthium strumarium; conditions: for Cocklebur plant response rating: postemergence
Summary of the method: as §2

corn = assay: Test B pre-/postemergence herbicide test; format: in vivo, Zea mays; conditions: for Corn plant response rating: postemergence
Summary of the method: as §3

large crabgrass [7] = assay: Test B pre-/postemergence herbicide test; format: in vivo, Digitaria sanguinalis; conditions: for Crabgrass, Large plant response rating: postemergence
Summary of the method: as §3

giant foxtail [8] = assay: Test B pre-/postemergence herbicide test; format: in vivo, Setaria faberi; conditions: for Foxtail, Giant plant response rating: postemergence
Summary of the method: as §3

lambsquarters = assay: Test B pre-/postemergence herbicide test; format: in vivo, Chenopodium album; conditions: for Lambsquarters plant response rating: postemergence
Summary of the method: as §3

morningglory [9] = assay: Test B pre-/postemergence herbicide test; format: in vivo, Ipomoea coccinea; conditions: for Morningglory plant response rating: postemergence
Summary of the method: as §2

pigweed = assay: Test B pre-/postemergence herbicide test; format: in vivo, Amaranthus retroflexus; conditions: for Pigweed plant response rating: postemergence
Summary of the method: as §3

rice [10] = assay: Test B pre-/postemergence herbicide test; format: in vivo, Oryza sativa; conditions: preemergence
Summary of the method: as §3

velvetleaf [11] = assay: Test B pre-/postemergence herbicide test; format: in vivo, Abutilon theophrasti; conditions: for Velvetleaf plant response rating: postemergence
Summary of the method: as §3

blackgrass = assay: Test B postemergence herbicide test; format: in vivo, Alopecurus myosuroides; conditions: postemergence
Summary of the method: (§4)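 Each value is a visual 0–100 response rating taken against controls 13 to 15 days after treatment in the greenhouse. Plants received formulated chemical postemergence at the 1- to 4-leaf stage or, in flooded paddy, at the 2-leaf stage.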

wheat = assay: Test B postemergence herbicide test; format: in vivo, Triticum aestivum; set-up: key to Wheat plant response rating: 0 = no effect, 100 = complete control; conditions: postemergence
Summary of the method: (§5)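 Greenhouse test; postemergence application to plants at 1–4 leaves (2–18 cm); paddy species at 2 leaves; evaluated visually vs controls at 13–15 days; scale 0–100 (100 = complete control).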

wild oat = assay: Test B postemergence herbicide test; format: in vivo, Avena fatua; conditions: postemergence
Summary of the method: as §5

rice [12] = assay: Test B flooded paddy test; format: in vivo, Oryza sativa; conditions: 1000 g ai/ha, scale 0 to 100 (0 no effect, 100 complete control)
Summary of the method: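 Postemergence plants were sprayed with formulated test chemicals at 2 to 18 cm height (1- to 4-leaf stage); paddy species were grown to the 2-leaf stage. After 13 to 15 days in a greenhouse, injury was rated visually against untreated controls on a 0–100 scale (0 = no effect, 100 = complete control).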

[13] = system: small flower umbrella sedge; assay: Test B flooded paddy test; format: in vivo, Cyperus difformis; conditions: 1000 g ai/ha, scale 0 to 100 (0 no effect, 100 complete control)
Summary of the method: as §4

ducksalad = assay: Test B flooded paddy test; format: in vivo, Heteranthera limosa; conditions: 1000 g ai/ha, scale 0 to 100 (0 no effect, 100 complete control)
Summary of the method: as §4

barnyardgrass [14] = assay: Test B flooded paddy test; format: in vivo, Echinochloa crus-galli; conditions: 1000 g ai/ha, scale 0 to 100 (0 no effect, 100 complete control)
Summary of the method: as §4

[15] = Postemergence, 500 g ai/ha, 0 to 100 scale, 0 no effect, 100 complete control
[16] = Postemergence, 2000 g ai/ha, 0 to 100 scale, 0 no effect, 100 complete control
[17] = Preemergence, 2000 g ai/ha, visual rating, 0 to 100 scale (0 no effect, 100 complete control)
[18] = preemergence, 500 g ai/ha, visual injury, 0 to 100 scale (0 no effect, 100 complete control)
[19] = 125 g ai/ha, 0 is no effect, 100 is complete control, preemergence
[20] = 125 g ai/ha, visual rating, scale 0 (no effect) to 100 (complete control)
[21] = 500 g ai/ha, visual rating, 0 = no effect, 100 = complete control, preemergence
[22] = 500 g ai/ha, scale 0 to 100, 0 is no effect, 100 is complete control

## Cn1nc(C(C)(C)C)cc1C(=O)Nc1cccc(C(=O)NC2CC2)n1 [Compound 315]
Barnyardgrass [1]; [15]
  Barnyardgrass plant response rating: 20
Barnyardgrass [1]; [16]
  Plant response rating, Barnyardgrass: 20
Barnyardgrass [1]; [17]
  Barnyardgrass plant response rating: 5
Barnyardgrass [1]; [18]
  Barnyardgrass plant response rating: 5
Large crabgrass [2]; [15]
  Crabgrass, Large plant response rating: 20
Large crabgrass [2]; [16]
  Plant response rating, Crabgrass, Large: 20
Large crabgrass [2]; [17]
  Crabgrass, Large plant response rating: 15
Large crabgrass [2]; [18]
  Crabgrass, Large plant response rating: 5
Giant foxtail [3]; [15]
  Foxtail, Giant plant response rating: 0
Giant foxtail [3]; [16]
  Plant response rating, Foxtail, Giant: 0
Giant foxtail [3]; [17]
  Foxtail, Giant plant response rating: 10
Giant foxtail [3]; [18]
  Foxtail, Giant plant response rating: 0
Morningglory [4]; [15]
  Morningglory plant response rating: 0
Morningglory [4]; [16]
  Plant response rating, Morningglory: 0
Morningglory [4]; [17]
  Morningglory plant response rating: 10
Morningglory [4]; [18]
  Morningglory plant response rating: 5
Redroot pigweed; [15]
  Pigweed plant response rating: 10
Redroot pigweed; [16]
  Plant response rating, Pigweed: 20
Redroot pigweed; [17]
  Pigweed plant response rating: 45
Redroot pigweed; [18]
  Pigweed plant response rating: 15
Velvetleaf [5]; [15]
  Velvetleaf plant response rating: 0
Velvetleaf [5]; [16]
  Plant response rating, Velvetleaf: 0
Velvetleaf [5]; [17]
  Velvetleaf plant response rating: 30
Velvetleaf [5]; [18]
  Velvetleaf plant response rating: 10
Barnyardgrass [6]; [19]
  Plant response rating (0 to 100 scale), Barnyardgrass: 0
Barnyardgrass [6]; [20]
  Barnyardgrass plant response rating: 10
Barnyardgrass [6]; [21]
  Plant response rating, Barnyardgrass: 20
Barnyardgrass [6]; [22]
  Barnyardgrass plant response rating: 20
Surinam grass; [19]
  Plant response rating (0 to 100 scale), Surinam Grass: 0
Surinam grass; [20]
  Surinam Grass plant response rating: 20
Surinam grass; [21]
  Plant response rating, Surinam Grass: 10
Surinam grass; [22]
  Surinam Grass plant response rating: 20
cocklebur; [19]
  Plant response rating (0 to 100 scale), Cocklebur: 0
cocklebur; [20]
  Cocklebur plant response rating: 20
cocklebur; [21]
  Plant response rating, Cocklebur: 0
cocklebur; [22]
  Cocklebur plant response rating: 20
corn; [19]
  Plant response rating (0 to 100 scale), Corn: 0
corn; [20]
  Corn plant response rating: 10
corn; [21]
  Plant response rating, Corn: 0
corn; [22]
  Corn plant response rating: 20
Large crabgrass [7]; [19]
  Plant response rating (0 to 100 scale), Crabgrass, Large: 0
Large crabgrass [7]; [20]
  Crabgrass, Large plant response rating: 0
Large crabgrass [7]; [21]
  Plant response rating, Crabgrass, Large: 20
Large crabgrass [7]; [22]
  Crabgrass, Large plant response rating: 10
Giant foxtail [8]; [19]
  Plant response rating (0 to 100 scale), Foxtail, Giant: 0
Giant foxtail [8]; [20]
  Foxtail, Giant plant response rating: 0
Giant foxtail [8]; [21]
  Plant response rating, Foxtail, Giant: 20
Giant foxtail [8]; [22]
  Foxtail, Giant plant response rating: 10
lambsquarters; [19]
  Plant response rating (0 to 100 scale), Lambsquarters: 0
lambsquarters; [20]
  Lambsquarters plant response rating: 50
lambsquarters; [21]
  Plant response rating, Lambsquarters: 80
lambsquarters; [22]
  Lambsquarters plant response rating: 60
Morningglory [9]; [19]
  Plant response rating (0 to 100 scale), Morningglory: 0
Morningglory [9]; [20]
  Morningglory plant response rating: 0
Morningglory [9]; [21]
  Plant response rating, Morningglory: 0
Morningglory [9]; [22]
  Morningglory plant response rating: 20
pigweed; [19]
  Plant response rating (0 to 100 scale), Pigweed: 20
pigweed; [20]
  Pigweed plant response rating: 10
pigweed; [21]
  Plant response rating, Pigweed: 100
pigweed; [22]
  Pigweed plant response rating: 50
Rice [10]; 125 g ai/ha, 0 is no effect, 100 is complete control
  Plant response rating (0 to 100 scale), Rice: 0
Rice [10]; 500 g ai/ha, visual rating, 0 = no effect, 100 = complete control
  Plant response rating, Rice: 0
Velvetleaf [11]; [19]
  Plant response rating (0 to 100 scale), Velvetleaf: 10
Velvetleaf [11]; [20]
  Velvetleaf plant response rating: 20
Velvetleaf [11]; [21]
  Plant response rating, Velvetleaf: 20
Velvetleaf [11]; [22]
  Velvetleaf plant response rating: 20
blackgrass; [20]
  Blackgrass plant response rating: 0
blackgrass; [22]
  Blackgrass plant response rating: 0
wheat; [20]
  Wheat plant response rating: 0
wheat; [22]
  Wheat plant response rating: 0
Wild oat; [20]
  Oat, Wild plant response rating: 0
Wild oat; [22]
  Oat, Wild plant response rating: 10
Rice [12]
  Rice plant response rating: 0
[13]
  Sedge, Umbrella plant response rating: 0
ducksalad
  Ducksalad plant response rating: 0
Barnyardgrass [14]
  Barnyardgrass plant response rating: 0
